Starred links: 1 amine or outer side, 2 acyl side, 3 side chain; linkers in the order of their positions; H or OH if unused. Non-standard residues stand in square brackets, D forms with d. Residues, ends and D or L forms follow the SMILES beside them. *: point of attachment. X1 = O=C([C@@H]1CCNc2c(N[*:1])cc3cc(O)c(O)cc3[n+]21)[*:2]; dOrn(N5-OH,N5-CHO) = N[C@H](CCCN(O)C=O)C(=O)O; Butanoyl(2-oxo,4-COOH) = O=C(O)CCC(=O)C(=O)*; d(aThr) = C[C@@H](O)[C@@H](N)C(=O)O; X2 = O=C1[C@@H](N*)CCCN1[O-]; X3 = O=C1[C@@H](N*)CCCN1O; Orn = NCCC[C@H](N)C(=O)O
How the values were obtained:
[1] = biological target: T1, hNGAL (human lipocalin 2, parent wild type SEQ ID NO: 1) mutein SEQ ID NO: 27 (Homo sapiens, UniProt P80188, A60T/C107S/D97N/E64D/I61V/K154W/K93N/L123Q/L56V/L90R/Q48H/Q69G/R101E/R92H/S147K/S88E/W99S/Y126M/Y152V/Y72P); experiment: Solution binding ELISA
T1 construct: made in house; host or cells: E. coli
Experimental: (§5) The residual supernatants were discarded and 20 μl HRP-labeled anti-hNGAL antibody was added at a predetermined optimal concentration in PBS-T/BSA and incubated for 1 h at RT. […] After washing, 20 μl fluorogenic HRP substrate (QuantaBlu, Thermo) was added to each well, and the reaction was allowed to proceed for 15 to 60 minutes. The fluorescence intensity of every well on the plate was read using a fluorescence microplate reader (Tecan or Molecular Devices). […] Curve fitting was performed using GraphPad Prism 4 software.

[2] = biological target: T2, hNGAL (human lipocalin 2, parent wild type SEQ ID NO: 1) mutein SEQ ID NO: 30 (Homo sapiens, UniProt P80188, A60T/C107S/D97H/K145I/K154W/K93F/L123M/L56V/L90R/Q48H/Q69G/R101D/R92I/S147R/S88D/W99Y/Y126Q/Y152I/Y72N); experiment: Solution binding ELISA
T2 construct: made in house; host or cells: E. coli
Experimental: as §5

[3] = biological target: T3, hNGAL (human lipocalin 2, parent wild type SEQ ID NO: 1) mutein SEQ ID NO: 36 (Homo sapiens, UniProt P80188, A60T/C107S/D97H/K145I/K154W/K93R/L123T/L56V/L90R/N85D/Q69G/R101D/R92I/S147R/S88D/T74A/W99Y/Y126Q/Y152I/Y72N); experiment: Surface plasmon resonance (Biacore T200); format: binding; details: SPR, 25° C., Table 2B
T3 construct: made in house; host or cells: E. coli
Experimental: (§6) In a Surface Plasmon Resonance (SPR) based assay a Biacore T200 instrument (GE Healthcare) was used to measure the binding affinity of muteins to pyoverdine I succinyl, -succinamide, -α-ketoglutaryl with complexed iron ion or to pyoverdine II succinyl, -succinamide, -α-ketoglutaryl with complexed iron ion or to pyoverdine III succinyl, -succinamide, -α-ketoglutaryl with complexed iron ion. Muteins selected for binding to pyoverdines and negative control (SEQ ID NO: 64) were biotinylated for 2 h at room temperature applying an appropriate excess of EZ-Link NHS-PEG4-Biotin (Thermo, Cat #21329) followed by separation of non-reacted Biotin using a Zebra Spin Desalting Plate (Thermo, Cat #21329) according to the manufactures instructions.
In the SPR affinity assay, biotinylated muteins and negative control were captured on a sensor chip CAP using the Biotin CAPture Kit (GE Healthcare): Sensor Chip CAP is pre-immobilized with an ssDNA oligo. Undiluted Biotin CAPture Reagent (streptavidin conjugated with the complementary ss-DNA oligo) was applied at a flow rate of 2 μl/min for 300 s. Subsequently, 1 μg/ml to 100 μg/mL of biotinylated muteins or negative control were applied for 300 s at a flow rate of 5 μl/min. […]
Applying a flow rate of 30 μl/min, a single cycle or multi cycle kinetics approach was used with a sample contact time of 120-180 s and a dissociation time of 900-2400 s. […] After ligand immobilization, for analysis using single cycle kinetics all 4-5 concentrations of Pvd were applied consecutively in ascending order before the dissociation was monitored. […] Data were evaluated with Biacore T200 Evaluation software (V 1.0). […]
In the SPR affinity assay, biotinylated muteins and negative control were captured on a sensor chip CAP using the Biotin CAPture Kit (GE Healthcare), wherein the Sensor Chip CAP is pre-immobilized with an ssDNA oligo. […] After ligand immobilization, the four concentrations of Pvd were applied consecutively in ascending order before the dissociation was monitored. […] Data were evaluated with Biacore T200 Evaluation software (V 1.0). […]

[4] = biological target: T4, hNGAL (human lipocalin 2, parent wild type SEQ ID NO: 1) mutein SEQ ID NO: 34 (Homo sapiens, UniProt P80188, A60T/C107S/D97H/K145I/K154W/K93R/L123T/L56V/L90R/N85D/Q48H/Q69G/R101D/R92I/S147R/S88D/T74A/W99Y/Y126Q/Y152I/Y72N); experiment: Solution binding ELISA; details: Example 5
T4 construct: made in house; host or cells: E. coli
Experimental: as §5

[5] = biological target: T5, hNGAL (human lipocalin 2, parent wild type SEQ ID NO: 1) mutein SEQ ID NO: 28 (Homo sapiens, UniProt P80188, A60T/C107S/D97N/E64D/I61V/K154W/L123Q/L56V/L90R/N116K/Q48H/Q69G/R101E/R92H/S147K/S88E/W99F/Y120H/Y126M/Y152A/Y72P); experiment: Solution binding ELISA
T5 construct: made in house; host or cells: E. coli
Experimental: as §5

[6] = biological target: T6, hNGAL (human lipocalin 2, parent wild type SEQ ID NO: 1) mutein SEQ ID NO: 31 (Homo sapiens, UniProt P80188, A60T/C107S/D97H/K145I/K154W/K93R/L123T/L56V/L90R/Q48H/Q69G/R101D/R92I/S147R/S88D/W99Y/Y126Q/Y152I/Y72N); experiment: Solution binding ELISA
T6 construct: made in house; host or cells: E. coli
Experimental: as §5

[7] = biological target: T7, Fusion molecule SEQ ID NO: 134 (hNGAL muteins SEQ ID NOs: 36, 16, 53 and 62) (Homo sapiens, UniProt P80188, A60T/C107S/D97H, form not given/K145I/K154W/K93R/L123T/L56V/L90R/N85D/Q69G/R101D/R92I/S147R/S88D/T74A/W99Y/Y126Q/Y152I/Y72N); experiment: Solution binding ELISA; details: binding to target in solution, tracer 0.1 nM, Table 11
T7 construct: made in house
T7 sequence (P80188 with tags, fused parts or gaps with the stated changes, form open): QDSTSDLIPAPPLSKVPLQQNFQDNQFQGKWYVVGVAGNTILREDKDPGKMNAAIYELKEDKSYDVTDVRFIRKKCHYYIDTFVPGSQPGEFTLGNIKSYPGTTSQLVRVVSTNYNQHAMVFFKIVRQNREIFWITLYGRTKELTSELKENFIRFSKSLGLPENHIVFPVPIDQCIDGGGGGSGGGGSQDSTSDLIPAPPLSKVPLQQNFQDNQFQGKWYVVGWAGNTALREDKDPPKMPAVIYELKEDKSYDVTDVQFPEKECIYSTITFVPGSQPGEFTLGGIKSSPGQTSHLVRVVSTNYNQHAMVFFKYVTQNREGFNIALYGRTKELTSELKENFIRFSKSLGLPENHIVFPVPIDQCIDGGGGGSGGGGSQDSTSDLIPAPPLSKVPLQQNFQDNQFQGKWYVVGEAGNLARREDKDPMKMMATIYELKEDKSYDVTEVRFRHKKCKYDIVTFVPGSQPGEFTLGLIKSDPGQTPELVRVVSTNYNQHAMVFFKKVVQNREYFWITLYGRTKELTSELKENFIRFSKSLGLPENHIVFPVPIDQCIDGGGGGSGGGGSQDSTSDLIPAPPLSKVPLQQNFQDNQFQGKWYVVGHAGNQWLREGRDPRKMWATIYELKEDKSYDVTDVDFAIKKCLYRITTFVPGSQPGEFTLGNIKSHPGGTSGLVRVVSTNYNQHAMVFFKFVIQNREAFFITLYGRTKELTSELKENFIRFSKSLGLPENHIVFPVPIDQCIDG

[8] = biological target: T8, Fusion molecule SEQ ID NO: 134 (hNGAL muteins SEQ ID NOs: 36, 16, 53 and 62) (Homo sapiens, UniProt P80188, A60T/C107S/D97H, form not given/K145I/K154W/K93R/L123T/L56V/L90R/N85D/Q69G/R101D/R92I/S147R/S88D/T74A/W99Y/Y126Q/Y152I/Y72N); experiment: Surface plasmon resonance (Biacore T200); format: binding; details: Biacore, 25° C., Table 13
T8 construct: made in house; host or cells: HEK293
T8 sequence (P80188 with tags, fused parts or gaps with the stated changes, form open): as above

[9] = biological target: T9, hNGAL (human lipocalin 2, parent wild type SEQ ID NO: 1) mutein SEQ ID NO: 26 (Homo sapiens, UniProt P80188, A60E/C107S/D97N/E64D/I61V/K145N/K154W/K93N/L123V/L56V/L90R/N116K/Q48H/Q69G/R101E/R92H/S147K/S88E/W99S/Y120N/Y126M/Y152G/Y72P); experiment: Solution binding ELISA
T9 construct: made in house; host or cells: E. coli
Experimental: as §5

[10] = biological target: T10, hNGAL (human lipocalin 2, parent wild type SEQ ID NO: 1) mutein SEQ ID NO: 29 (Homo sapiens, UniProt P80188, A60Q/C107S/D97N/E64D/I61V/K154W/K93N/L123H/L56V/L90R/Q48H/Q69G/R101E/R92H/S147K/S88E/Y120N/Y126M/Y152G/Y72P); experiment: Solution binding ELISA
T10 construct: made in house; host or cells: E. coli
Experimental: as §5

[11] = biological target: T11, hNGAL (human lipocalin 2, parent wild type SEQ ID NO: 1) mutein SEQ ID NO: 19 (Homo sapiens, UniProt P80188, A60E/C107S/D97N/I61V/K154W/K93N/L123Q/L56V/L90R/Q48H/Q69G/R101E/R92H/S147K/S88E/W99S/Y120N/Y126M/Y152G/Y72P); experiment: Solution binding ELISA
T11 construct: made in house; host or cells: E. coli
Experimental: as §5

[12] = biological target: T12, hNGAL (human lipocalin 2, parent wild type SEQ ID NO: 1) mutein SEQ ID NO: 20 (Homo sapiens, UniProt P80188, A60T/C107S/D97H/K145I/K154W/K93M/L123T/L90R/N116I/Q48H/Q69G/R101E/R92I/S147R/S88D/W99Y/Y120N/Y126Q/Y152M/Y72N); details: solution binding ELISA
T12 construct: made in house; host or cells: E. coli
Experimental: as §5

[13] = biological target: T13, hNGAL (human lipocalin 2, parent wild type SEQ ID NO: 1) mutein SEQ ID NO: 56 (Homo sapiens, UniProt P80188, A60F/C107S/D97A/I61H/K145G/K154V/K93A/L123M/L56M/L90P/N116A/Q48H/Q69S/R101I/R92W/S147W/S88H/W99K/Y120G/Y126W/Y152T/Y72P); experiment: Solution binding ELISA
T13 construct: made in house; host or cells: E. coli
Experimental: as §5

[14] = biological target: T14, hNGAL (human lipocalin 2, parent wild type SEQ ID NO: 1) mutein SEQ ID NO: 57 (Homo sapiens, UniProt P80188, A60Y/C107S/D97R/I61W/K145L/K154N/K93R/L123Q/L56V/L90R/N116P/Q48H/Q69A/R101W/R92W/S147R/S88D/W99D/Y120E/Y126R/Y152A); experiment: Solution binding ELISA
T14 construct: made in house; host or cells: E. coli
Experimental: as §5

[15] = biological target: hNGAL muteins from affinity optimization of SEQ ID NO: 56 (Homo sapiens, UniProt P80188); experiment: Solution binding ELISA
Experimental: (§1) Solution binding of muteins was assayed by a “Solution binding ELISA”, the principle of which was as follows: a constant concentration of the tested mutein was incubated with variable concentrations of ligands (Pvd I s, sa, αKG+/−Fe/Pvd II s, sa, αKG+/−Fe/Pvd III s, sa, αKG+/−Fe/Pch+/−Fe) for 1 h. After this pre-incubation in solution, an aliquot of the mutein/ligand mixture was transferred to an ELISA plate with biotinylated Pvd I s (+Fe), Pvd II s (+Fe), Pvd III s (+Fe) or Pch immobilized via Neutravidin to measure the remaining concentration of free muteins. The concentration of free (non ligand-bound) muteins was determined via a quantitative ELISA setup.
(§2) In detail, a 384-well plate suitable for fluorescence measurements (Greiner FLUOTRAC™ 600, black flat bottom, high-binding) was coated with 20 μl of Neutravidin at a concentration of 5 μg/ml in PBS overnight at 4 C. After washing, the Neutravidin-coated wells were blocked with 100 μl blocking buffer containing 0.1% Tween 20 and 2% BSA (PBS-T/BSA) for 1 h at room temperature.
(§3) A fixed concentration of muteins was incubated in solution with varying concentrations of ligand (Pvd I s, sa, αKG+/−Fe/Pvd II s, sa, αKG+/−Fe/Pvd III s, sa, αKG+/−Fe/Pch+/−Fe), using a suitable starting concentration which was serially diluted at a 1:3 ratio down to the picomolar range in PBS-T/BSA. […] To allow for transformation of ELISA readout results into absolute free mutein concentrations, a standard curve containing varying concentrations of muteins was prepared in PBS-T/BSA and incubated for 20 min on the same ELISA plate as well.
(§4) The residual supernatants were discarded and 20 μl HRP-labeled anti-hNGAL antibody was added at a predetermined optimal concentration in PBS-T/BSA and incubated for 1 h at RT. […] The fluorescence intensity of every well on the plate was read using a fluorescence microplate reader (Tecan or Molecular Devices). To evaluate the data, free mutein concentration, c(mutein)free, was calculated based on the standard curve results, and plotted versus ligand concentration, c(Ligand). […]

[16] = biological target: hNGAL muteins from affinity optimization of SEQ ID NO: 55 (Homo sapiens, UniProt P80188); experiment: Solution binding ELISA
Experimental: as §1, §2, §3, §4

[17] = biological target: lipocalin negative control SEQ ID NO: 64 (Homo sapiens, UniProt P80188, C107S/Q48H); experiment: Surface plasmon resonance (Biacore T200); format: binding; details: SPR, analyte at 200 nM
lipocalin negative control SEQ ID NO: 64, sequence (P80188 21-198 Q48H/C107S): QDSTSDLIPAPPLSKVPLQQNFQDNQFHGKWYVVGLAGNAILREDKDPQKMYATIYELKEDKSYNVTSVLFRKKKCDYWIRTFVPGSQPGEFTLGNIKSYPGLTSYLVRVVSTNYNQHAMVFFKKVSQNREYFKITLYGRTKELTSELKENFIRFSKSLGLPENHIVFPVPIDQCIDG
Experimental: as §6
In the SPR affinity assay, biotinylated muteins and negative control were captured on a sensor chip CAP using the Biotin CAPture Kit (GE Healthcare): Sensor Chip CAP is pre-immobilized with an ssDNA oligo. Undiluted Biotin CAPture Reagent (streptavidin conjugated with the complementary ss-DNA oligo) was applied at a flow rate of 2 μl/min for 300 s. Subsequently, 1 μg/ml to 100 μg/mL of biotinylated muteins or negative control were applied for 300 s at a flow rate of 5 μl/min. The reference channel was loaded with Biotin CAPture Reagent only.
Applying a flow rate of 30 μl/min, a single cycle or multi cycle kinetics approach was used with a sample contact time of 120-180 s and a dissociation time of 900-2400 s. […] After ligand immobilization, for analysis using single cycle kinetics all 4-5 concentrations of Pvd were applied consecutively in ascending order before the dissociation was monitored. For analysis using multi cycle kinetics 4 dilutions of Pvd were applied, each followed a dissociation phase. All measurements were performed at 25° C. […] Data were evaluated with Biacore T200 Evaluation software (V 1.0). Double referencing was used. A 1:1 Binding model was used to fit the raw data.
Subsequently, 5 μg/mL of mutein or the negative control solution in 10 mM acetate pH 4.0 was applied at a flow rate of 10 μl/min until a high immobilization level of approximately 2000 RU was achieved. Residual activated groups were quenched with ethanolamine. The reference channels were treated with EDC/NHS following ethanolamine (blank immobilization).
In the SPR affinity assay, biotinylated muteins and negative control were captured on a sensor chip CAP using the Biotin CAPture Kit (GE Healthcare), wherein the Sensor Chip CAP is pre-immobilized with an ssDNA oligo. Undiluted Biotin CAPture Reagent (streptavidin conjugated with the complementary ss-DNA oligo) was applied at a flow rate of 2 μl/min for 300 s. Subsequently, 20 μg/ml to 100 μg/mL of biotinylated muteins or fusion molecule negative control were applied for 300 s at a flow rate of 5 μl/min. The reference channel was loaded with Biotin CAPture Reagent only. To determine the binding affinity, four dilutions of the respective Pvd were prepared in HBS-EP+ buffer (GE Healthcare) and applied to the chip surface. Applying a flow rate of 30 μl/min, a single cycle kinetics approach was used with a sample contact time of 180 s and a dissociation time of 1800-2400 s. […] After ligand immobilization, the four concentrations of Pvd were applied consecutively in ascending order before the dissociation was monitored. All measurements were performed at 25° C. […] Data were evaluated with Biacore T200 Evaluation software (V 1.0). Double referencing was preformed. A 1:1 binding model was used to fit the raw data.

T3 sequence (P80188 21-198 with the stated changes): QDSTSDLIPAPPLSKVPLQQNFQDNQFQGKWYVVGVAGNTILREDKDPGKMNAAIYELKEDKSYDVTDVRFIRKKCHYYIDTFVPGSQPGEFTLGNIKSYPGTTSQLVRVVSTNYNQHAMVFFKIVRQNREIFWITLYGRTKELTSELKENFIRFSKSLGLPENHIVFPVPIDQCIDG
hNGAL muteins from affinity optimization of SEQ ID NO: 55, sequence (P80188 21-198, stated change not applied): as the sequence (P80188 21-198 Q48H/C107S) above, with H28Q, S87C counted along it
T5 sequence (P80188 other isoform, or with tags, fused parts or gaps with the stated changes): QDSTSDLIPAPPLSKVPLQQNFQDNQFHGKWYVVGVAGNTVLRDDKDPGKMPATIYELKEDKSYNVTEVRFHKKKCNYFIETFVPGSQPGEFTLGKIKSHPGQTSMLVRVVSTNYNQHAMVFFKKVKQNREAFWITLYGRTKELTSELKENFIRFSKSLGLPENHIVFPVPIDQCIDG
T4 sequence (P80188 other isoform, or with tags, fused parts or gaps with the stated changes): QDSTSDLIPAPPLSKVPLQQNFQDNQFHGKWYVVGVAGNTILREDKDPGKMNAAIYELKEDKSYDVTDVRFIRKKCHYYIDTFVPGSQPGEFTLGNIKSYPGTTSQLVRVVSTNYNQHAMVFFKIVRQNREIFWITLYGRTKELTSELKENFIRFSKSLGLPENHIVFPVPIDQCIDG
T9 sequence (P80188 other isoform, or with tags, fused parts or gaps with the stated changes): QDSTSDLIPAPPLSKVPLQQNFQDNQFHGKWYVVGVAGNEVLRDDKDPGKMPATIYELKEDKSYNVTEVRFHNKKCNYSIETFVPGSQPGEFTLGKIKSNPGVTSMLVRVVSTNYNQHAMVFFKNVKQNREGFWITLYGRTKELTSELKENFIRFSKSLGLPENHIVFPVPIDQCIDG
T2 sequence (P80188 other isoform, or with tags, fused parts or gaps with the stated changes): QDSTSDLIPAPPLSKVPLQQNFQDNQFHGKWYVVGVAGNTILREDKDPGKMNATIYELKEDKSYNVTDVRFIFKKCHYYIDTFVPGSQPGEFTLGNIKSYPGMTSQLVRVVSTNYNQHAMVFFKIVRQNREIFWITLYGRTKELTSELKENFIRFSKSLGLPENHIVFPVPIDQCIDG
T12 sequence (P80188 other isoform, or with tags, fused parts or gaps with the stated changes): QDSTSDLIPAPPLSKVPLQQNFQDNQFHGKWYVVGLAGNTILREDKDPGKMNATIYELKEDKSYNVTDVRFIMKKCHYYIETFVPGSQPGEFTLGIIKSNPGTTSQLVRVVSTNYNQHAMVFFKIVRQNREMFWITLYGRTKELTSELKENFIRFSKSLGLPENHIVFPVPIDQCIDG
T13 sequence (P80188 21-198 with the stated changes): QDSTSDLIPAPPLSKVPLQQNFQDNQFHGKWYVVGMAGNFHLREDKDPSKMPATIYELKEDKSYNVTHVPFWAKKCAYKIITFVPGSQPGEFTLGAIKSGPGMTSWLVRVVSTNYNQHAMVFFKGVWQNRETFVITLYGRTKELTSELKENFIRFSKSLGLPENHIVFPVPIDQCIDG
T1 sequence (P80188 other isoform, or with tags, fused parts or gaps with the stated changes): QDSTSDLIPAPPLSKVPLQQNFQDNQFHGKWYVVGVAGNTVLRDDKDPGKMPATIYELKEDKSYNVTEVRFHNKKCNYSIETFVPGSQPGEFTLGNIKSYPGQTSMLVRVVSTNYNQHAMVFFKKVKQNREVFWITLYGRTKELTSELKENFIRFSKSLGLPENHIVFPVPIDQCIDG
T11 sequence (P80188 other isoform, or with tags, fused parts or gaps with the stated changes): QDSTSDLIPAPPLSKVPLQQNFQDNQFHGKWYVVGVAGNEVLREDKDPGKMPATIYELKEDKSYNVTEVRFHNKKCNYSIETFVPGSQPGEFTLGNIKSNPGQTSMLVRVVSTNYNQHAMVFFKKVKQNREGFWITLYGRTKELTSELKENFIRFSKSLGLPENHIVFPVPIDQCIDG
T14 sequence (P80188 21-198 with the stated changes): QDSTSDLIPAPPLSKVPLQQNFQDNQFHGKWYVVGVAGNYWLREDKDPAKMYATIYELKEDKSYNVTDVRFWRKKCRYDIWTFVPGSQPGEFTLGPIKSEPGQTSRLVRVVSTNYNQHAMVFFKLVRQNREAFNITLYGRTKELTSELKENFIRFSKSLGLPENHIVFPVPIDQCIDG
T6 sequence (P80188 other isoform, or with tags, fused parts or gaps with the stated changes): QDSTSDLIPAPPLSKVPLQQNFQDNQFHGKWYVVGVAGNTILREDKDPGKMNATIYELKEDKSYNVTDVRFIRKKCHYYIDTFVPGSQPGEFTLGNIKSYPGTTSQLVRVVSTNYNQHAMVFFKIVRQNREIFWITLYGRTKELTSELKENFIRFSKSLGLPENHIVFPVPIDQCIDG
T10 sequence (P80188 other isoform, or with tags, fused parts or gaps with the stated changes): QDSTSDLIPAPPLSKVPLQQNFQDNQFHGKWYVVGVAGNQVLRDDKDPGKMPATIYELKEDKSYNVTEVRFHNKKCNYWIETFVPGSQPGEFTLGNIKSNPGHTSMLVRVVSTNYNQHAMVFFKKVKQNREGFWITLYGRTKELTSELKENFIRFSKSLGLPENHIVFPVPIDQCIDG
hNGAL muteins from affinity optimization of SEQ ID NO: 56, sequence (P80188 21-198, stated change not applied): as the sequence (P80188 21-198 Q48H/C107S) above, with H28Q, S87C counted along it

Which IC50 [1] does the source give for C[C@@H](O)[C@@H](NC(=O)CNC(=O)[C@H](CCCN)NC(=O)[C@@H](CCCN([O-])C=O)NC(=O)[C@@H](CO)NC(=O)[C@@H]1CCNc2c(NC(=O)C(=O)CCC(=O)O)cc3cc([O-])c([O-])cc3[n+]21)C(=O)N[C@@H](CO)C(=O)N[C@H]1CCCN([O-])C1=O.[Fe+3] [Pvd II aKG (+Fe), Pvd type II α-ketoglutaryl] ({Butanoyl(2-oxo,4-COOH)}-[X1][dS][dOrn(N5-OH,N5-CHO)][Orn]G[d(aThr)]S-X2) here?
The IC50 was 1.97 nM.

And the IC50 [2]?
Its IC50 is 3 nM.

What about the Kd [3] of the same compound?
Its Kd is 1.97 nM.

What about the koff [3] of the same compound?
Its koff is 5.62e-05 s⁻¹.

And the kon [3]?
Its kon is 28600 M⁻¹ s⁻¹.

What about the IC50 [4] of the same compound?
The IC50 was 1.6 nM.

What about the IC50 [5] of the same compound?
Its IC50 is 2.25 nM.

And the IC50 [6]?
Its IC50 is 1.1 nM.

What about the IC50 [7] of the same compound?
The IC50 was 0.88 nM.

And the Kd [8]?
The Kd was 1.19 nM.

What about the IC50 [9] of the same compound?
The IC50 was 1.3 nM.

What about the IC50 [10] of the same compound?
Its IC50 is 1.9 nM.

What about the IC50 [11] of the same compound?
The IC50 was 21 nM.

What about the IC50 [12] of the same compound?
The IC50 was 85 nM.

How did the IC50 [1] turn out when C[C@@H](O)[C@@H](NC(=O)CNC(=O)[C@H](CCCN)NC(=O)[C@@H](CCCN(O)C=O)NC(=O)[C@@H](CO)NC(=O)[C@@H]1CCNc2c(NC(=O)C(=O)CCC(=O)O)cc3cc(O)c(O)cc3[n+]21)C(=O)N[C@@H](CO)C(=O)N[C@H]1CCCN(O)C1=O [Pvd II aKG (−Fe), Pvd type II α-ketoglutaryl] ({Butanoyl(2-oxo,4-COOH)}-[X1][dS][dOrn(N5-OH,N5-CHO)][Orn]G[d(aThr)]S-X3) was run?
The IC50 was 1.4 nM.

And the IC50 [2]?
Its IC50 is 2.85 nM.

What about the IC50 [4] of the same compound?
Its IC50 is 1.2 nM.

And the IC50 [5]?
Its IC50 is 1.65 nM.

And the IC50 [6]?
The IC50 was 0.64 nM.

What about the IC50 [7] of the same compound?
The IC50 was 0.81 nM.

And the Kd [8]?
The Kd was 3.27 nM.

And the IC50 [9]?
The IC50 was 0.75 nM.

And the IC50 [10]?
The IC50 was 1.6 nM.

And the IC50 [11]?
The IC50 was 34 nM.

What about the IC50 [12] of the same compound?
The IC50 was 89 nM.

For CN1C([C@H]2CSC(c3ccccc3O)=N2)SC[C@H]1C(=O)O.[Fe+3] (stereo partly drawn) [pch (+Fe), pyochelin], which “affinity (in words)” value [13] is on record?
Its value is “two- to three digit nM affinity”.

And the “affinity (in words)” value [14]?
Its value is “two- to three digit nM affinity”.

And the “affinity (in words)” value [15]?
The value was “no or weak affinity”.

What about the “affinity (in words)” value [16] of the same compound?
The value was “single digit nM affinity”.

What about the binding [17] of the same compound?
Its binding is “absence of binding”.

How did the “affinity (in words)” value [13] turn out when CN1C([C@H]2CSC(c3ccccc3O)=N2)SC[C@H]1C(=O)O (stereo partly drawn) [pch (−Fe), pyochelin] was run?
The value was “weak affinity or not at all”.

And the “affinity (in words)” value [14]?
The value was “weak affinity or not at all”.

What about the improved affinity ([16]; compared with SEQ ID NO: 55) of the same compound?
The improved affinity was “more than 75 fold”.

Source: patent US10947284B2, “Fusion molecules” (Pieris Pharmaceuticals GMBH, priority 2015, dated 2021)
